{"source": "patent US20190070170A1", "about": "“METHOD OF S[…]-1” (Macau University of Science and Technology, priority 2017, published 2019)", "key": {"[1]": {"conditions": "previous studies (Evans 1994; Werner et al. 1992); cited from earlier work"}, "mPGES-1": {"tested_on": "mPGES-1", "test": "mPGES-1 protein expression in hind paws of CIA DBA/1 mice", "type": "in vivo", "conditions": "SIN 100 mg/kg i.p. or MTX 10 mg/kg/week p.o.", "method": "Female DBA/1 mice (8-9 weeks old) were purchased from Shanghai SiLaike (SLAC) Laboratory Animal Company (Shanghai, China) and fed with a chow diet and water at room temperature. Equal volume of complete Freuend's adjuvant (CFA) and Bovine Type II Collagen (CII) were mixed and emulsified using a homogenizer (13,000 rpm) on ice. On day 0, DBA/1 mice were immunized by injecting 50 μl of CII in CFA in the tail, approximately 2 cm from the base of the tail. […] The incidence of joint swelling in each group was recorded every two days since drug treatment. […]\nFrozen paws were pulverized in liquid nitrogen using a stainless steel mortar and pestle, then re-suspended in 8 volumes of ice-cold PBS from Invitrogen (San Diego, Calif., USA) with 2.6 mM DTT from Promega (Madison, Wis., USA) and 2×Complete Protease Inhibitor mixture from Roche (Mannheim, Germany), and homogenized on ice bath using a tissue homogenizer from T25 digital, IKA (Stanfen, Germany) at 10,000 rpm/min for 5 min. […] The protein concentrations were measured using a Bio-Rad protein assay kit (Hercules, Calif., USA). […]\nWhole-cell and nuclear proteins were obtained using RIPA lysis buffer (CST, Boston, Mass., USA) and Nuclear and Cytoplasmic Extraction Reagents kit from Thermo Scientific (Asheville, N.C., USA), respectively. […] The levels of protein expression were measured using Odyssey v3.0 software from Li-COR (Lincoln, Nebr., USA)."}, "[2]": {"tested_on": "collagen-induced arthritis", "test": "Collagen-II induced arthritis (CIA) in DBA/1 mice", "type": "in vivo", "conditions": "CIA DBA/1 mice; MTX 10 mg/kg/week p.o.", "method": "Female DBA/1 mice (8-9 weeks old) were purchased from Shanghai SiLaike (SLAC) Laboratory Animal Company (Shanghai, China) and fed with a chow diet and water at room temperature. Equal volume of complete Freuend's adjuvant (CFA) and Bovine Type II Collagen (CII) were mixed and emulsified using a homogenizer (13,000 rpm) on ice. On day 0, DBA/1 mice were immunized by injecting 50 μl of CII in CFA in the tail, approximately 2 cm from the base of the tail. After injection, on day 18, mice with one or more than one paw inflamed were chosen and randomly divided into model group, SIN (100 mg/kg, i.p.) treatment group and MTX (10 mg/kg/week, p.o) treatment group, the mice without immunization were used as normal control. On day 21, these chosen mice were boosted through injecting the same volume of CII in IFA same as the day 0 immunization procedure. The incidence of joint swelling in each group was recorded every two days since drug treatment. Paw thickness (at the ankle joints of the hind paws) of each mouse was obtained by using vernier caliper to record the severity of paw swelling.\nArthritis score of each paw was evaluated every two days during experiment with the following criteria: • 0: no evidence of erythema and swelling; • 1: erythema and mild swelling confirmed to the tarsals or ankle joint; • 2: erythema and mild swelling extending from the ankle to the tarsal joints; • 3: erythema and moderate swelling extending from the ankle to metatarsal joints; and • 4: erythema and severe swelling encompass the ankle, foot and digits, or ankylosis of the limb.\nThe score of each paw was summed for a score of 0-16 for each mouse. Mice were then sacrificed and hind paws were removed and freshly frozen in liquid nitrogen and stored at −80° C. until used."}}, "data": [{"smiles": "C[C@@H]1C[C@H]2[C@@H]3CCC4=CC(=O)C=C[C@]4(C)[C@@]3(F)[C@@H](O)C[C@]2(C)[C@@]1(O)C(=O)CO", "note": "[DEX, Dexamethasone]", "values": [{"measurement": "cardiac side effects", "setting": "[1]", "result": "faster heart rates, transient absolute myocardial hypertrophy and increase in systemic blood pressure"}]}, {"smiles": "CN(Cc1cnc2nc(N)nc(N)c2n1)c1ccc(C(=O)N[C@@H](CCC(=O)O)C(=O)O)cc1", "note": "[MTX, methotrexate, reference compound]", "values": [{"measurement": "mPGES-1 protein expression in inflamed hind paws", "setting": "mPGES-1", "result": "no observable effects"}, {"measurement": "arthritis in CIA mice", "setting": "[2]", "result": "no observable effects"}]}]}
